From patent US7919504B2, “Thiadiazole modulators of PKB” (Amgen Inc., priority 2007, dated 2011)
Counter-ions that a name gives are not always drawn.

The compounds below were run against T1, PKBα (Homo sapiens, UniProt P31749) (assay: PKB kinase assay (P33-labeled ATP, synthetic peptide substrate, filter plate capture)). Conditions: with respect to PKBα.
T1 construct: the full length PKBα and a kinase domain of PKBα with pleckstrin domain (amino acids 1-117) deleted
Type: biochemical
Excerpt: The kinase assay for evaluating PKB activity comprises active PKB enzymes, a PKB specific substrate, and P^33-labeled ATP. Two form of PKBα enzymes were used, the full length PKBα and a kinase domain of PKBα with pleckstrin domain (amino acids 1-117) deleted. Both PKB enzymes were obtained from Upstate cell signaling solutions (Cat. #14-276 and 14-341). The PKB substrate used is a synthetic peptide (ARKRERTYSFGHHA (SEQ ID NO: 1)) as described in Obata et al., J. Biol. Chem. 275 (46), 36108-36115 (2000). The phosphorylated substrate was captured by a phosphocellulose membrane filter plate (MILLIPORE) and measured by a Wallac Microbeta liquid scintillation counter (Perkin Elmer). Table 1 provides the IC50 values obtained for each of the examples with respect to PKBα.

T1 sequence (P31749 118-480 limits assumed): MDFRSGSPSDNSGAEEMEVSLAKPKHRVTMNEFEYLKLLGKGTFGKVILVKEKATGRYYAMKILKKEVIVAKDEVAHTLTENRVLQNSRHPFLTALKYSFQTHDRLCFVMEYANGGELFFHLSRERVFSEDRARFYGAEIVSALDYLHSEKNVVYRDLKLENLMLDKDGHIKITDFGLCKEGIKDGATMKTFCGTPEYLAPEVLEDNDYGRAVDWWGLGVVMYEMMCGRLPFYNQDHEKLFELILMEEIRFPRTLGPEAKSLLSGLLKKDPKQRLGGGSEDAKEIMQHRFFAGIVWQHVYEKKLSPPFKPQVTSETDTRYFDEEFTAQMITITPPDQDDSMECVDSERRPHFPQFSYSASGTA

| Compound | IC50 [µM] |
| --- | --- |
| FC(F)(F)c1ccc([C@@H]2CCN[C@@H]2CNc2nnc(-c3ccc4cnccc4c3)s2)cc1 [Example 27, 5-(Isoquinolin-6-yl)-N-(((2S,3S)-3-(4-(trifluoromethyl)phenyl)pyrrolidin-2-yl)methyl)-1,3,4-thiadiazol-2-amine] | 1 to 10 |
| CC(C)n1c(=O)[nH]c2ccc(-c3nnc(NC[C@@H](N)Cc4ccc(C(F)(F)F)cc4)s3)cc21 [Example 5, 6-(5-((S)-2-Amino-3-(4-(trifluoromethyl)phenyl)propylamino)-1,3,4-thiadiazol-2-yl)-1-isopropyl-1H-benzo[d]imidazol-2(3H)-one] | 1 to 10 |
| CC(Nc1nnc(-c2ccc3cnccc3c2)s1)c1ccco1 (racemic) [Example 22, (±)-N-(1-(Furan-2-yl)ethyl)-5-(isoquinolin-6-yl)-1,3,4-thiadiazol-2-amine] | 1 to 10 |
| c1ccc2[nH]c(CCNc3nnc(-c4ccc5cnccc5c4)s3)nc2c1 [Example 19, N-(2-(1H-Benzo[d]imidazol-2-yl)ethyl)-5-(isoquinolin-6-yl)-1,3,4-thiadiazol-2-amine] | 1 to 10 |
| OC[C@H](Nc1nnc(-c2ccc3cnccc3c2)s1)[C@@H](O)c1ccccc1 [Example 16, (1S,2S)-2-(5-(Isoquinolin-6-yl)-1,3,4-thiadiazol-2-ylamino)-1-phenylpropane-1,3-diol] | 1 to 10 |
| N[C@H](C(=O)Nc1nnc(-c2ccc3cnccc3c2)s1)[C@@H](CO)c1ccc(C(F)(F)F)cc1 [Example 31, (2S,3S)-2-Amino-4-hydroxy-N-(5-(isoquinolin-6-yl)-1,3,4-thiadiazol-2-yl)-3-(4-(trifluoromethyl)phenyl)butanamide hydrochloride] | 1 to 10 |
| Oc1cccc(C(O)CNc2nnc(-c3ccc4cnccc4c3)s2)c1 (racemic) [Example 24, (±)-3-(1-Hydroxy-2-(5-(isoquinolin-6-yl)-1,3,4-thiadiazol-2-ylamino)ethyl)phenol] | 1 to 10 |
| O[C@@H]1CCCC[C@H]1CNc1nnc(-c2ccc3cnccc3c2)s1 [Example 17, (1R,2S)-2-((5-(Isoquinolin-6-yl)-1,3,4-thiadiazol-2-ylamino)methyl)cyclohexanol] | 0.05 to 1 |
| NC(CNc1nnc(-c2cccc3cnncc23)s1)Cc1ccc(C(F)(F)F)cc1 (stereo in doubt) [Example 28, N-((S)-2-amino-3-(4-(trifluoromethyl)phenyl)propyl)-5-(phthalazin-5-yl)-1,3,4-thiadiazol-2-amine] | 1 to 10 |
| N[C@H](CNc1nnc(-c2ccc3ncncc3c2)s1)Cc1ccc(C(F)(F)F)cc1 [Example 25, N-((S)-2-Amino-3-(4-(trifluoromethyl)phenyl)propyl)-5-(quinazolin-6-yl)-1,3,4-thiadiazol-2-amine] | 0.05 to 1 |
| Cc1cccc(C[C@H](N)CNc2nnc(-c3cc4c(Cl)cncc4s3)s2)c1 [Example 13, N-((S)-2-Amino-3-m-tolylpropyl)-5-(4-chlorothieno[2,3-c]pyridin-2-yl)-1,3,4-thiadiazol-2-amine] | 0.05 to 1 |
| N[C@H](CNc1nnc(-c2cc3c(cc2F)NC(=O)C3)s1)Cc1ccc(C(F)(F)F)cc1 [Example 3, 5-(5-((S)-2-Amino-3-(4-(trifluoromethyl)phenyl)propylamino)-1,3,4-thiadiazol-2-yl)-6-fluoroindolin-2-one] | 0.05 to 1 |
| c1ccc2[nH]c(CNc3nnc(-c4ccc5cnccc5c4)s3)nc2c1 [Example 18, N-((1H-Benzo[d]imidazol-2-yl)methyl)-5-(isoquinolin-6-yl)-1,3,4-thiadiazol-2-amine] | 1 to 10 |
| c1ccc([C@@H]2CCN[C@@H]2CNc2nnc(-c3ccc4cnccc4c3)s2)cc1 (racemic) [Example 33, Racemic mixture of 5-(isoquinolin-6-yl)-N-(((2S,3S)-3-phenylpyrrolidin-2-yl)methyl)-1,3,4-thiadiazol-2-amine and 5-(isoquinolin-6-yl)-N-(((2R,3R)-3-phenylpyrrolidin-2-yl)methyl)-1,3,4-thiadiazol-2-amine] | 0.05 to 1 |

Continued, values first:

| IC50 [µM] | Compound |
| --- | --- |
| < 0.05 | N[C@H](CNc1nnc(-c2ccc3[nH]c(=O)oc3c2)s1)Cc1ccc(C(F)(F)F)cc1 [Example 11, 6-(5-((S)-2-Amino-3-(4-(trifluoromethyl)phenyl)propylamino)-1,3,4-thiadiazol-2-yl)benzo[d]oxazol-2(3H)-one] |
| < 0.05 | C[C@@H](c1ccc(C(F)(F)F)cc1)[C@H](N)CNc1nnc(-c2ccc3c(c2)CC(=O)N3)s1 [Example 7, 5-(5-((2S,3S)-2-Amino-3-(4-(trifluoromethyl)phenyl)butylamino)-1,3,4-thiadiazol-2-yl)indolin-2-one] |
| 0.05 to 1 | N[C@H](COc1nnc(-c2ccc3cnccc3c2)s1)Cc1ccc(C(F)(F)F)cc1 [Example 32, (2S)-1-(5-(isoquinolin-6-yl)-1,3,4-thiadiazol-2-yloxy)-3-(4-(trifluoromethyl)phenyl)propan-2-amine] |
| 0.05 to 1 | OC(CNc1nnc(-c2ccc3cnccc3c2)s1)Cc1ccccc1 (racemic) [Example 29, (±)-1-(5-(isoquinolin-6-yl)-1,3,4-thiadiazol-2-ylamino)-3-phenylpropan-2-ol] |
| 0.05 to 1 | N[C@H](CNc1nnc(-c2cc3c(Cl)cncc3s2)s1)Cc1ccccc1 [Example 12, N-((S)-2-Amino-3-phenylpropyl)-5-(4-chlorothieno[2,3-c]pyridin-2-yl)-1,3,4-thiadiazol-2-amine] |
| < 0.05 | N[C@H](CCc1nnc(-c2ccc3[nH]c(=O)oc3c2)s1)Cc1ccc(C(F)(F)F)cc1 [Example 49, 6-(5-((R)-3-Amino-4-(4-(trifluoromethyl)phenyl)butyl)-1,3,4-thiadiazol-2-yl)benzo[d]oxazol-2(3H)-one] |
| 0.05 to 1 | N[C@H](CNc1nnc(-c2cc3c(Cl)cncc3s2)s1)Cc1cc(F)cc(F)c1 [Example 14, N-((S)-2-Amino-3-(3,5-difluorophenyl)propyl)-5-(4-chlorothieno[2,3-c]pyridin-2-yl)-1,3,4-thiadiazol-2-amine] |
| < 0.05 | N[C@H](CCc1nnc(-c2ccc3[nH]ncc3c2)s1)Cc1ccc(C(F)(F)F)nc1 [Example 46, (2R)-4-(5-(1H-Indazol-5-yl)-1,3,4-thiadiazol-2-yl)-1-(6-(trifluoromethyl)pyridin-3-yl)butan-2-amine] |
| 0.05 to 1 | N[C@H](CNc1nnc(-c2cc3c(Cl)cncc3s2)s1)Cc1ccc(C(F)(F)F)cc1 [Example 9, N-((S)-2-amino-3-(4-(trifluoromethyl)phenyl)propyl)-5-(4-chlorothieno[2,3-c]pyridin-2-yl)-1,3,4-thiadiazol-2-amine] |
| < 0.05 | N[C@H](CNc1nnc(-c2ccc3c(c2)CC(=O)N3)s1)Cc1ccc(Cl)cc1 [Example 34, 5-(5-((S)-2-Amino-3-(4-chlorophenyl)propylamino)-1,3,4-thiadiazol-2-yl)indolin-2-one] |
| < 0.05 | N[C@H](CNc1nnc(-c2ccc3c(c2)CC(=O)N3)s1)[C@@H](O)c1ccc(C(F)(F)F)cc1 [Example 51, 5-(5-((2R,3S)-2-Amino-3-hydroxy-3-(4-(trifluoromethyl)phenyl)propylamino)-1,3,4-thiadiazol-2-yl)indolin-2-one trifluoroacetate] |
| 0.05 to 1 | N[C@H](CNc1nnc(-c2cc3c(Cl)cncc3s2)s1)Cc1cccc(C(F)(F)F)c1 [Example 8, N-((S)-2-amino-3-(3-(trifluoromethyl)phenyl)propyl)-5-(4-chlorothieno[2,3-c]pyridin-2-yl)-1,3,4-thiadiazol-2-amine] |
| < 0.05 | N[C@H](CCc1nnc(-c2ccc3cnc(F)cc3c2)s1)Cc1ccc(C(F)(F)F)nc1 [Example 45, (2R)-4-(5-(3-Fluoroisoquinolin-6-yl)-1,3,4-thiadiazol-2-yl)-1-(6-(trifluoromethyl)pyridin-3-yl)butan-2-amine] |
| < 0.05 | N[C@H](CNc1nnc(-c2ccc3[nH]c(=O)oc3c2)s1)Cc1ccc(Cl)cc1 [Example 50, 6-(5-((S)-2-Amino-3-(4-chlorophenyl)propylamino)-1,3,4-thiadiazol-2-yl)benzo[d]oxazol-2(3H)-one] |
| 0.05 to 1 | OC(CNc1nnc(-c2ccc3cnccc3c2)s1)Cc1ccc(C(F)(F)F)cc1 (racemic) [Example 30, (±)-1-(5-(Isoquinolin-6-yl)-1,3,4-thiadiazol-2-ylamino)-3-(4-(trifluoromethyl)phenyl)propan-2-ol] |
| < 0.05 | N[C@H](CNc1nnc(-c2ccc3c(c2)CC(=O)N3)s1)Cc1ccc(C(F)(F)F)cc1 [Example 2, 5-(5-((S)-2-amino-3-(4-(trifluoromethyl)phenyl)propylamino)-1,3,4-thiadiazol-2-yl)indolin-2-one] |
| < 0.05 | Cn1c(=O)[nH]c2ccc(-c3nnc(NC[C@@H](N)Cc4ccc(C(F)(F)F)cc4)s3)cc21 [Example 1, 6-(5-((S)-2-Amino-3-(4-(trifluoromethyl)phenyl)propylamino)-1,3,4-thiadiazol-2-yl)-1-methyl-1H-benzo[d]imidazol-2(3H)-one] |
| < 0.05 | CC(F)(F)c1ccc(C[C@H](N)CNc2nnc(-c3ccc4c(c3)CC(=O)N4)s2)cc1 [Example 4, 5-(5-((S)-2-Amino-3-(4-(1,1-difluoroethyl)phenyl)propylamino)-1,3,4-thiadiazol-2-yl)indolin-2-one] |
| < 0.05 | N[C@H](CCc1nnc(-c2ccc3cnccc3c2)s1)Cc1ccc(C(F)(F)F)cc1 [Example 35, (2R)-4-(5-(Isoquinolin-6-yl)-1,3,4-thiadiazol-2-yl)-1-(4-(trifluoromethyl)phenyl)butan-2-amine] |
| < 0.05 | N[C@H](CCc1nnc(-c2ccc3cnc(F)cc3c2)s1)Cc1ccc(C(F)(F)F)cc1 [Example 48, (2R)-4-(5-(3-Fluoroisoquinolin-6-yl)-1,3,4-thiadiazol-2-yl)-1-(4-(trifluoromethyl)phenyl)butan-2-amine] |
